Measured values taken from patent US20200017496A1 (priority 2017, published 2020).
Like-named read-outs stand apart in the source and are kept apart here.

Legend:
Test in all cases: MIC of compounds alone and combined with antibacterials, broth microdilution (CLSI)
Assay type in all cases: cell-based
[1] = system: Serratia marcescens (SMA) isolates; conditions: for MIC: Serratia marcescens, ATB alone, read-out: MIC
Method in brief: (§1)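 Log-phase bacteria at a final 5·10^5 CFU/mL in cation-adjusted Mueller-Hinton broth were incubated 16-20 h at 35° C in ambient air with compound alone or with an antibacterial. MIC was the lowest concentration preventing visible growth; combination MIC of the antibacterial was read at each compound concentration.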

[2] = system: Klebsiella pneumoniae (KPN) isolates; conditions: for MIC ATB in combination: AF1 @ 4 μg/mL; for MIC: Klebsiella pneumoniae
Method in brief: as §1

[3] = system: Citrobacter koseri (CKR) isolates; conditions: for MIC ATB in combination: AF1 @ 4 μg/mL; for MIC: Citrobacter koseri, ATB alone
Method in brief: as §1

## CO/N=C(\C(=O)N[C@@H]1C(=O)N2C(C(=O)O)=C(COC(N)=O)CS[C@H]12)c1ccco1 [FUR, Cefuroxime]
[1]; strain SMA UFR137 (SME-1)
  MIC: 256 µg/mL
[1]; strain SMA UFR138 (SME-1)
  MIC: 256 µg/mL
[1]; strain SMA UFR139 (SME-2)
  MIC: > 256 µg/mL
[1]; strain SMA UFR141 (OXA-48)
  MIC: > 256 µg/mL
[1]; strain SMA UFR142 (OXA-48)
  MIC: > 256 µg/mL
[1]; strain SMA UFR143 (CTX-M-15, OXA-1, OXA-48)
  MIC: > 256 µg/mL
[1]; strain SMA UFR239 (ESAC)
  MIC: 256 µg/mL
[1]; strain SMA UFR238, antibacterial combined with AF1 @ 4 μg/mL
  MIC ATB in combination: 64 µg/mL
[2]; KPN 6299
  MIC ATB in combination: 16 µg/mL
[2]; KPN 110376
  MIC ATB in combination: 4 µg/mL
[2]; KPN 131119
  MIC ATB in combination: 8 µg/mL
[2]; KPN 140513
  MIC ATB in combination: 32 µg/mL
[2]; KPN 160143
  MIC ATB in combination: 4 µg/mL
[2]; KPN 190128
  MIC ATB in combination: 16 µg/mL
[2]; KPN 190270
  MIC ATB in combination: 16 µg/mL
[2]; KPN 190425
  MIC ATB in combination: 4 µg/mL
[2]; KPN 190551
  MIC ATB in combination: 4 µg/mL
[2]; KPN 200047
  MIC ATB in combination: 2 µg/mL
[2]; KPN 200327
  MIC ATB in combination: 2 µg/mL
[2]; KPN 260251
  MIC ATB in combination: 8 µg/mL
[2]; KPN 260252
  MIC ATB in combination: 32 µg/mL
[2]; KPN 260376
  MIC ATB in combination: 2 µg/mL
[2]; KPN 270077
  MIC ATB in combination: 16 µg/mL
[2]; KPN 700603
  MIC ATB in combination: 16 µg/mL
[2]; KPN ARA
  MIC ATB in combination: 16 µg/mL
[2]; KPN BAA-1898
  MIC ATB in combination: 4 µg/mL
[2]; KPN LIB
  MIC ATB in combination: 8 µg/mL
[2]; KPN UFR22_O
  MIC ATB in combination: 8 µg/mL
[2]; KPN UFR23
  MIC ATB in combination: 4 µg/mL
[2]; KPN UFR24
  MIC ATB in combination: 16 µg/mL
[2]; KPN UFR25
  MIC ATB in combination: 4 µg/mL
[2]; KPN UFR27
  MIC ATB in combination: 32 µg/mL
[2]; KPN UFR28
  MIC ATB in combination: 4 µg/mL
[2]; KPN UFR65
  MIC ATB in combination: 16 µg/mL
[2]; KPN UFR66
  MIC ATB in combination: 32 µg/mL
[2]; KPN UFR67
  MIC ATB in combination: 32 µg/mL
[2]; KPN UFR68
  MIC ATB in combination: 8 µg/mL
[2]; KPN UFR76
  MIC ATB in combination: >128 µg/mL
[2]; KPN UFR77
  MIC ATB in combination: 32 µg/mL
[2]; KPN UFR78
  MIC ATB in combination: >128 µg/mL
[2]; KPN UFR79
  MIC ATB in combination: 32 µg/mL
[2]; KPN UFR80
  MIC ATB in combination: 16 µg/mL
[2]; KPN UFR81
  MIC ATB in combination: 32 µg/mL
[2]; KPN UFR215
  MIC ATB in combination: 16 µg/mL
[2]; KPN UFR216
  MIC ATB in combination: 4 µg/mL
[2]; KPN UFR217
  MIC ATB in combination: 2 µg/mL
[2]; KPN UFR219
  MIC ATB in combination: 8 µg/mL
[2]; KPN UFR220
  MIC ATB in combination: 16 µg/mL
[2]; KPN UFR221
  MIC ATB in combination: 4 µg/mL
[2]; KPN UFR222
  MIC ATB in combination: 64 µg/mL
[2]; KPN UFR227O
  MIC ATB in combination: 64 µg/mL
[2]
  MIC: > 256 µg/mL
[2]; BAA1898, strain KPN BAA-1898 (TEM-1, SHV-11, SHV-12, KPC-2), ATB alone, read-out: MIC
  MIC: > 512 µg/mL
[2]; strain KPN 6299 (TEM-1, SHV-11, OXA-163), ATB alone, read-out: MIC
  MIC: > 512 µg/mL
[2]; strain KPN 700603 (SHV-18, OXA-2), ATB alone, read-out: MIC
  MIC: 32 µg/mL
[2]; strain KPN LIB (SHV-11, OXA-48), ATB alone, read-out: MIC
  MIC: 16 µg/mL
[2]; strain KPN UFR22_O (TEM-1, SHV-1, OXA-48), ATB alone, read-out: MIC
  MIC: 32 µg/mL
[2]; strain KPN UFR23 (TEM-1, SHV-1, OXA-48), ATB alone, read-out: MIC
  MIC: 8 µg/mL
[2]; strain KPN UFR24 (TEM-1, SHV-2, SHV-11, OXA-1, OXA-48, OXA-47), ATB alone, read-out: MIC
  MIC: 128 µg/mL
[2]; strain KPN UFR77 (CMY-2), ATB alone, read-out: MIC
  MIC: 64 µg/mL
[2]; strain KPN UFR80 (SHV-11, DHA-1, OXA-1), ATB alone, read-out: MIC
  MIC: 32 µg/mL
[3]; CKO ROU
  MIC ATB in combination: 32 µg/mL
[3]; CKO UFR149
  MIC ATB in combination: 128 µg/mL
[3]; CKO UFR150
  MIC ATB in combination: 32 µg/mL
[3]; strain CKO ROU (TEM-1, SHV-12, CTX-M-15, OXA-1, OXA-48), read-out: MIC
  MIC: 64 µg/mL
[3]; strain CKO UFR149 (OXA-48)
  MIC: > 256 µg/mL
[3]; strain CKO UFR150 (TEM-1, OXA-48), read-out: MIC
  MIC: 64 µg/mL
